Measured values reported in US9737523B2, “Anti-fibrogenic compounds, methods and uses thereof” (priority 2013, dated 2017).

What was measured:
A549 = test: MMP-1 expression in lung epithelial carcinoma cell line A549, Western blot; format: cell-based, human; settings: A549, 12.5 to 150 μg/ml, 48 hours
Procedure: (§1) The squamous cell carcinoma (UMSCC) cell line derived from patients with head and neck cancer (ATCC™, Manassas, Va.) were maintained in RPMI-1640 medium with 10% FBS. The Human keratinocyte cell line HACAT (ATCC) and the carcinomic human alveolar basal epithelial cell line A549 (ATCC™) were cultured in DMEM with 10% FBS. The diploid lung fibroblasts IMR-90 (ATCC™) were maintained in Minimum Essential Medium (MEM, Invitrogen™) with 10% FBS.
(§2) Similarly, other cells such as synoviocytes, IMR-90, keratinocytes, UMSCC and A549 were treated with kynurenine at concentrations of 12.5 to 150 μg/ml in appropriate media for each cell type as described above for 48 hours. Cells were then harvested for western blot analysis.
(§3) Cells were harvested by Trypsin/EDTA and lysed with cell lysis buffer containing 50 mM Tris-HCl (pH7.40), 150 mM NaCl, 10 mM EDTA, 5 mM EGTA, 1% TritonX-100™, 0.5% Igepal CA-630, 0.025% NaN3 and protease inhibitor cocktail (Sigma™). Cell debris was removed by centrifugation at 20,000×g for 10 minutes. The protein concentration in supernatant was determined using the MicroBCA™ method (Pierce™, Rockford, Ill.). Proteins in supernatant were mixed with protein sample loading buffer (final concentration: 60 mM Tris-HCl (pH 6.80), 2% SDS, 10% glycerol, 1.5% β-mercaptoethanol, 0.002% bromophenol blue) and size fractioned by 10% of SDS-polyacrylamide gel. […]

UMSCC = test: MMP-1 expression in squamous cell carcinoma cell line UMSCC, Western blot; format: cell-based, human; settings: 12.5 to 150 μg/ml, 48 hours
Procedure: as §1, §2, §3

ERK1/2 = ERK1/2 phosphorylation in dermal fibroblasts, Western blot; format: cell-based, human; settings: 100 μg/ml
Procedure: as §3, with “gel. After proteins were transferred onto nitrocellulose membrane by iBlot™ (Invitrogen Life Technologies™), non-specific binding were blocked with phosphate buffer saline twenty 20 (PBS-T) containing 5% skim milk for 1 hour. The membrane was then incubated with primary antibody overnight. After incubation with a secondary antibody for 1 hour, protein bands were visualized by an enhanced chemiluminescence (ECL™) detection system (Santa Cruz Biotechnology™, Santa Cruz, Calif.).” for “gel.”

rabbit ear wounds = test: Rabbit ear hypertrophic scar model, topical application; format: in vivo
Procedure: Female rabbits (New Zealand white) weighing 4.5-5 kg were used for this study. The protocol was reviewed and approved by the University of British Columbia animal care committees. The rabbit ear model of hypertrophic scar was created as described previously (Rahmani-Neishaboor, et al., 2010). Briefly, 2 rabbits were anesthetized by intramuscular injection of ketamine (22.5 mg/kg) and xylazine (2.5 mg/kg) followed by isoflurane gas through tracheal intubation. Four wounds were created down to bare cartilage on the ventral side of each ear using an 8-mm dermal biopsy punch to remove full-thickness sections of skin. Antibiotics were applied on wounds daily until kynurenine treatment was started.
Kynureine in CMC gel (Rahmani-Neishaboor et al., 2010) with a concentration of 500 μg/ml was applied topically to the wounds of the experimental group (0.1 ml per wound) daily for 3 weeks starting at 1 week post wounding. The wounds of the control group were received the treatment with an equal amount of cream alone daily.
Animals were sacrificed on weeks 3 after treatments. Scars (10 mm punch biopsies) were harvested. Each scar was sectioned in two along its longitudinal axis and half of which was processed for routine histological analysis and another half was kept at −80° C. for future use.
Scar elevation was quantified by measuring Scar Elevation Index (SEI) from the H & E stained tissue section. The SEI is a ratio of total height in the wound tissue to the normal tissue below the hypertrophic scar.
According to a method previously reported (Gawronskao-Kozak B. et al. 2006), half of 8 mm diameter skin punches were weighed and frozen in −80° C. Skins were homogenized in 2 ml of PBS and stored at 4° C. overnight. The next day, 1 ml of 6N HCl was added and the mixture was heated at 120° C. for 5 hours. 20 μl of cooled samples and 50 μl of chloramine T solution were added to the 96-well plate and incubated at room temperature for 20 minutes. 50 μl of Erlich solution was then added and the mixture was incubated at 65° C. for 15 minutes. Absorbance was read at 570 nm. Hydroxyproline concentration was calculated by a standard curve.
RNA was extracted by Trizol™ (Invitrogen Life Technologies™). Briefly, 1 ml of Trizol™ was added to the homogenized skin tissue. 250 μl of chloroform was added after the mixture was standed at room temperature for 5 minutes. Top aqueous phase was transferred into a new eppendorf tube after centrifugation for 10 minute at 20,000×g. Equal volume isopropanol was added to the aqueous phase and mixed gently. The pellet was washed with 1 ml of 75% ethanol after centrifugation for 20 minutes. RNA was dissolved in DEPC treated H2O and its concentration was measured by Nanodrop2000™. cDNA was synthesized by cDNA synthesis kit from Roche according to manufacture's introduction using 1 μg of total RNA in each sample. Quantitative real-time PCR for rabbit type-1 α1 collagen, MMP-1 and housekeeper gene β-actin were performed in ViiA7 (Invitrogen™). cDNA samples were added to a PCR reaction master mix containing STBR Green Master Mix™ (Rox) (Roche™, Indianapolis, Ind.). All reactions were performed in duplicate using the following cycle conditions: 1 cycle of 95° C. for 10 minutes, 40 cycles of 95° C. for 15 seconds and 60° C. for 1 minute. The expression level of type-1 α1 collagen and MMP-1 in each sample was normalised to β-actin. RT-PCR primers: rabbit type-1 α1 collagen: 5′-[…]-3′ (Forward), 5′-[…]-3′ (Reverse); MMP-1,5′-[…]-3′ (Forward), 5′-[…]-3′ (Reverse); β-actin, 5′-[…]-3′ (Forward), 5′-[…]-3′(Reverse).

fibronectin = test: Fibronectin mRNA in human dermal fibroblasts, real-time PCR; format: cell-based; settings: various concentration
splenocytes = test: ConA-induced splenocyte proliferation; format: cell-based; settings: 100 and 150 μg/ml
[1] = 50 μg in 0.1 ml CMC gel daily for three weeks
[2] = topical, versus no treatment or gel alone

## Nc1ccccc1C(=O)CC(N)C(=O)O (racemic) [kynurenine]
A549
  MMP-1 expression versus untreated controls: did not significantly differ
UMSCC
  MMP-1 expression versus untreated controls: did not significantly differ
ERK1/2
  time of peak ERK1/2 activation: 8 h
ERK1/2; different times
  ERK1/2 phosphorylation: phosphorylated
Rabbit ear wounds; [1]
  collagen content (Massons' trichrome staining): significant reduction
  hydroxyproline content (index for tissue collagen content): significant lower
Rabbit ear wounds; 50 μg in 0.1 ml CMC gel daily for three weeks, n=8, vehicle 1.978±0.442, untreated 2.098±0.324
  average scar elevation index (SEI): 1.172±0.156
Rabbit ear wounds; 50 μg in 0.1 ml CMC gel daily, after three weeks
  scarring versus non-treated or vehicle-only wounds: significantly less scarring
Rabbit ear wounds; 50 μg in 0.1 ml CMC gel daily, three weeks from day 8 post-wounding, data not shown
  wound closure versus untreated or CMC gel treated controls: no significant difference
Rabbit ear wounds; [2]
  expression of MMP-1 in rabbit ear skin (quantitative RT-PCR): increased
  expression of type-1 α1 collagen in rabbit ear skin (quantitative RT-PCR): decreased
fibronectin
  fibronectin expression (mRNA): capable of down-regulating
splenocytes; after 48 hours
  reduction in conA-induced splenocyte proliferation: about 2 fold
splenocytes; after 96 hours
  reduction in conA-induced splenocyte proliferation: ~5 fold
